Experiments:
[1] = Evaluated for binding constant with antigen meso-tetrakis (4-carboxyphenyl)porphyrin (TCPP) at 20% methanol content.
[2] = Evaluated for binding constant with antigen meso-tetrakis (4-carboxyphenyl)porphyrin (TCPP) at 30% methanol content.
[3] = Evaluated for binding constant with antigen meso-tetrakis (4-carboxyphenyl)porphyrin (TCPP) at 40% methanol content.
[4] = Evaluated for binding constant with antigen meso-tetrakis (4-carboxyphenyl)porphyrin (TCPP) at 0% methanol content.
[5] = Evaluated for binding constant with antigen meso-tetrakis (4-carboxyphenyl)porphyrin (TCPP) at 35% methanol content.
[6] = Evaluated for binding constant with antigen meso-tetrakis (4-carboxyphenyl)porphyrin (TCPP) at 5% methanol content.
[7] = Evaluated for binding constant with antigen meso-tetrakis (4-carboxyphenyl)porphyrin (TCPP) at 15% methanol content.

Ka [1]: 140000 M⁻¹
Ka [2]: 70000 M⁻¹
Ka [3]: 9700 M⁻¹
Ka [4]: 680000 M⁻¹
Ka [5]: 15000 M⁻¹
Ka [6]: 420000 M⁻¹
Ka [7]: 260000 M⁻¹
SMILES: CC[C@H](C)[C@H](NC(=O)[C@H](CCCN=C(N)N)NC(=O)CNC(=O)Cc1ccc2ccc3cccc4ccc1c2c34)C(=O)N[C@H]1CSSC[C@H](C(=O)N[C@H](C(=O)N[C@@H](CCCCN)C(=O)N[C@@H](Cc2ccc(O)cc2)C(N)=O)[C@H](C)O)NC(=O)CNC(=O)[C@H](CC(N)=O)NC(=O)[C@@H](C)NC(=O)[C@@H]2CCCN2C1=O

— ChEMBL document CHEMBL1130910, “Design of novel porphyrin-binding peptides based on antibody CDR” (Bioorg Med Chem Lett, 1998)
